≈ marks a conversion by molar mass, not a printed value. Like-named read-outs stand apart in the source and are kept apart here.
Legend:
Assay type in all cases: cell-based
VERO cells = test: Cytotoxicity on Vero cell monolayers (MNTD50); conditions: maximum 50% non-toxic dose, 5 days
Description: The cytotoxicity was evaluated on Vero cell monolayers (ICN-Flow). They were inoculated in 6-well plates each containing 9×10^4 cells and incubated in DMEM with 5% FCS for 24 h at 37° C. in a 5% CO2 incubator. After 24 h of culture, the medium was changed and a new medium containing decreasing doses of the substances under study was added.
After 5 days, the cells were trypsinized and counted in a Neubauer chamber under a light microscope. All the tests were done in triplicate. The maximum 50% non-toxic dose (MNTD50) was defined as the drug concentration that decreased cell multiplication less than 50% with respect to the control.

M. tuberculosis 103471 = test: Antimycobacterial activity, MIC in Middlebrook 7H9 broth (NCCLS procedure); conditions: for M. tuberculosis 103471 MIC: extracellular M. tuberculosis 103471; for MIC: Mycobacterium tuberculosis, 103471, read-out: M. tuberculosis 103471 MIC (μg/mL)
M. smegmatis 103599 = test: Antimycobacterial activity toward atypical mycobacteria, MIC in broth
M. marinum 6423 = test: as above
M. avium 103317 = test: as above

Cc1c(CN2CCN(C)CC2)cc(-c2ccccc2Cl)n1-c1ccc(F)cc1 [Compound 6b]
MNTD50 (μg/mL) VERO cells (VERO cells): 2 µg/mL
M. tuberculosis 103471 MIC (M. tuberculosis 103471): 8 µg/mL
MIC (μg/mL) M. smegmatis 103599 (M. smegmatis 103599): >16 µg/mL
MIC (μg/mL) M. marinum 6423 (M. marinum 6423): >16 µg/mL
MIC (μg/mL) M. avium 103317 (M. avium 103317): 16 µg/mL (≈ 40.2 µM)

Cc1c(CN2CCSCC2)cc(-c2cccc3ccccc23)n1-c1ccc(F)cc1 [Compound 6k]
MNTD50 (μg/mL) VERO cells (VERO cells): >128 µg/mL
M. tuberculosis 103471 MIC (M. tuberculosis 103471): >16 µg/mL
MIC (μg/mL) M. smegmatis 103599 (M. smegmatis 103599): >16 µg/mL
MIC (μg/mL) M. marinum 6423 (M. marinum 6423): >16 µg/mL
MIC (μg/mL) M. avium 103317 (M. avium 103317): >16 µg/mL

Cc1c(CN2CCN(C)CC2)cc(-c2ccc(F)cc2)n1-c1ccccc1F [Compound 7d]
MNTD50 (μg/mL) VERO cells (VERO cells): 8 µg/mL
M. tuberculosis 103471 MIC (M. tuberculosis 103471): 8 µg/mL
MIC (μg/mL) M. smegmatis 103599 (M. smegmatis 103599): 0.3 µg/mL (≈ 0.786 µM)
MIC (μg/mL) M. marinum 6423 (M. marinum 6423): >16 µg/mL
MIC (μg/mL) M. avium 103317 (M. avium 103317): 16 µg/mL (≈ 41.9 µM)

NNC(=O)c1ccncc1 [Isoniazid, reference compound]
MNTD50 (μg/mL) VERO cells (VERO cells): 32 µg/mL
MIC (M. tuberculosis 103471): 0.25 µg/mL (≈ 1.82 µM)
MIC (M. smegmatis 103599; Mycolicibacterium smegmatis, 103599, read-out: MIC (μg/mL) M. smegmatis 103599): 64 µg/mL (≈ 467 µM)
MIC (M. marinum 6423; Mycobacterium marinum, 6423, read-out: MIC (μg/mL) M. marinum 6423): 16 µg/mL (≈ 117 µM)
MIC (M. avium 103317; Mycobacterium avium, 103317, read-out: MIC (μg/mL) M. avium 103317): 32 µg/mL (≈ 233 µM)

Cc1ccc(-n2c(-c3ccc(F)cc3)cc(CN3CCN(C)CC3)c2C)cc1 [Compound 7f]
MNTD50 (μg/mL) VERO cells (VERO cells): 8 µg/mL
M. tuberculosis 103471 MIC (M. tuberculosis 103471): 16 µg/mL
MIC (μg/mL) M. smegmatis 103599 (M. smegmatis 103599): >16 µg/mL
MIC (μg/mL) M. marinum 6423 (M. marinum 6423): 8 µg/mL (≈ 21.2 µM)
MIC (μg/mL) M. avium 103317 (M. avium 103317): 16 µg/mL (≈ 42.4 µM)

Cc1c(CN2CCSCC2)cc(-c2ccccc2Cl)n1-c1ccc(F)cc1 [Compound 6a]
MNTD50 (μg/mL) VERO cells (VERO cells): 4 µg/mL
M. tuberculosis 103471 MIC (M. tuberculosis 103471): 4 µg/mL
MIC (μg/mL) M. smegmatis 103599 (M. smegmatis 103599): >16 µg/mL
MIC (μg/mL) M. marinum 6423 (M. marinum 6423): >16 µg/mL
MIC (μg/mL) M. avium 103317 (M. avium 103317): 16 µg/mL (≈ 39.9 µM)

Cc1c(CN2CCN(C)CC2)cc(-c2ccc(F)cc2)n1-c1ccc(Cl)cc1Cl [Compound 7h]
MNTD50 (μg/mL) VERO cells (VERO cells): 2 µg/mL
M. tuberculosis 103471 MIC (M. tuberculosis 103471): 4 µg/mL
MIC (μg/mL) M. smegmatis 103599 (M. smegmatis 103599): >16 µg/mL
MIC (μg/mL) M. marinum 6423 (M. marinum 6423): 8 µg/mL (≈ 18.5 µM)
MIC (μg/mL) M. avium 103317 (M. avium 103317): 4 µg/mL (≈ 9.25 µM)

Cc1ccc(-n2c(-c3ccc(F)cc3)cc(CN3CCSCC3)c2C)cc1 [Compound 7e]
MNTD50 (μg/mL) VERO cells (VERO cells): 8 µg/mL
M. tuberculosis 103471 MIC (M. tuberculosis 103471): 4 µg/mL
MIC (μg/mL) M. smegmatis 103599 (M. smegmatis 103599): 16 µg/mL (≈ 42 µM)
MIC (μg/mL) M. marinum 6423 (M. marinum 6423): 8 µg/mL (≈ 21 µM)
MIC (μg/mL) M. avium 103317 (M. avium 103317): 8 µg/mL (≈ 21 µM)

Cc1c(CN2CCSCC2)cc(-c2ccc(F)cc2F)n1-c1ccc(F)cc1 [Compound 6i]
MNTD50 (μg/mL) VERO cells (VERO cells): 16 µg/mL
M. tuberculosis 103471 MIC (M. tuberculosis 103471): 0.5 µg/mL
MIC (μg/mL) M. smegmatis 103599 (M. smegmatis 103599): >16 µg/mL
MIC (μg/mL) M. marinum 6423 (M. marinum 6423): 16 µg/mL (≈ 39.8 µM)
MIC (μg/mL) M. avium 103317 (M. avium 103317): 16 µg/mL (≈ 39.8 µM)

Cc1c(CN2CCN(C)CC2)cc(-c2ccc(F)cc2)n1-c1cccc2ccccc12 [Compound 7l]
MNTD50 (μg/mL) VERO cells (VERO cells): 4 µg/mL
M. tuberculosis 103471 MIC (M. tuberculosis 103471): 4 µg/mL
MIC (μg/mL) M. smegmatis 103599 (M. smegmatis 103599): >16 µg/mL
MIC (μg/mL) M. marinum 6423 (M. marinum 6423): 8 µg/mL (≈ 19.3 µM)
MIC (μg/mL) M. avium 103317 (M. avium 103317): 8 µg/mL (≈ 19.3 µM)

Cc1c(CN2CCSCC2)cc(-c2ccc(F)cc2)n1-c1ccc(F)cc1F [Compound 7i]
MNTD50 (μg/mL) VERO cells (VERO cells): 16 µg/mL
M. tuberculosis 103471 MIC (M. tuberculosis 103471): 2 µg/mL
MIC (μg/mL) M. smegmatis 103599 (M. smegmatis 103599): >16 µg/mL
MIC (μg/mL) M. marinum 6423 (M. marinum 6423): 16 µg/mL (≈ 39.8 µM)
MIC (μg/mL) M. avium 103317 (M. avium 103317): 16 µg/mL (≈ 39.8 µM)

Cc1c(CN2CCSCC2)cc(-c2ccc(F)cc2)n1-c1ccccc1Cl [Compound 7a]
MNTD50 (μg/mL) VERO cells (VERO cells): 8 µg/mL
M. tuberculosis 103471 MIC (M. tuberculosis 103471): 2 µg/mL
MIC (μg/mL) M. smegmatis 103599 (M. smegmatis 103599): >16 µg/mL
MIC (μg/mL) M. marinum 6423 (M. marinum 6423): >16 µg/mL
MIC (μg/mL) M. avium 103317 (M. avium 103317): >16 µg/mL

Cc1c(CN2CCN(C)CC2)cc(-c2ccc(Cl)cc2)n1-c1ccc(Cl)cc1 [BM212, 1-{[1,5-bis(4-chlorophenyl)-2-methyl-1H-pyrrol-3-yl]methyl}-4-methylpiperazine]
MNTD50 (μg/mL) VERO cells (VERO cells): 4 µg/mL
MIC (M. tuberculosis 103471): 0.7 µg/mL (≈ 1.69 µM)
MIC (M. smegmatis 103599; Mycolicibacterium smegmatis, 103599; read-out: MIC (μg/mL) M. smegmatis 103599): 25 µg/mL (≈ 60.3 µM)
MIC (M. marinum 6423; Mycobacterium marinum, 6423; read-out: MIC (μg/mL) M. marinum 6423): 100 µg/mL (≈ 241 µM)
MIC (M. avium 103317; Mycobacterium avium, 103317; read-out: MIC (μg/mL) M. avium 103317): 0.4 µg/mL (≈ 0.965 µM)
